Reference: publication PMC8260592 (Scientific Reports, 2021)
“Also recorded” adds a separate entry of the source.

What was measured:
BACE-1 = molecular target: T1, BACE-1 (Homo sapiens, UniProt P56817); test: BACE-1 activity detection kit (fluorescence); assay type: biochemical; settings: read-out: Residual activity at 10 µM (%) BACE-1
T1 construct: purchased Sigma-Aldrich

AChE [1] = molecular target: T2, AChE (Electrophorus electricus, UniProt O42275); test: Reversibility of AChE inhibition by dialysis; assay type: biochemical
T2 sequence (O42275 24-633): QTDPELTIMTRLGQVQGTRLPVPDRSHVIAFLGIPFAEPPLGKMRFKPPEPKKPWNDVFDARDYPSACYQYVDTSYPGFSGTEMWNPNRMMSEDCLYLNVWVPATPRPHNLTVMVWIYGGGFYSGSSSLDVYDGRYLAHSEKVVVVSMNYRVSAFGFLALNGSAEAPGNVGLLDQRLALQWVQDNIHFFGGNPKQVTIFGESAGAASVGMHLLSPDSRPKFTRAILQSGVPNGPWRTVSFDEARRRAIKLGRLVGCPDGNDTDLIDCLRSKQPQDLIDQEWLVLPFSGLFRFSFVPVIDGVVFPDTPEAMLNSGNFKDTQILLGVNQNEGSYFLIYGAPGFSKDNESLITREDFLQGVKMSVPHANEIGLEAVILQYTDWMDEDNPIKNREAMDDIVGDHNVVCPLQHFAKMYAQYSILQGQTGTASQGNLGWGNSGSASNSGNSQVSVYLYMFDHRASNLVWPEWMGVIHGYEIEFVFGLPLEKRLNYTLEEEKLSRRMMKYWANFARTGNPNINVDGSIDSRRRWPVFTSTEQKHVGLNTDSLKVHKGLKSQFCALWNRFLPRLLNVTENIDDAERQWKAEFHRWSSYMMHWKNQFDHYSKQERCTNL
Description: (§1) After preincubating three compounds or reference inhibitors with enzymes for 15 min, residual activities of undialyzed (AU) and dialyzed (AD) samples were expressed as percentages of those of non-inhibitor treated controls. Reversibilities were assessed using AU and AD values and compared with those of reference compounds.
(§2) After preincubating the compounds with enzymes for 15 min, the mixtures were dialyzed for 6 h with two buffer changes. Results are the averages of duplicate or triplicate experiments.

AChE [2] = settings: ref 43; cited from earlier work
MAO-B [3] = molecular target: T3, MAO-B (Homo sapiens, UniProt P27338); test: Kinetics of MAO-B inhibition (Lineweaver-Burk and secondary plots); assay type: biochemical
T3 construct: purchased Sigma-Aldrich
T3 sequence (P27338 1-520): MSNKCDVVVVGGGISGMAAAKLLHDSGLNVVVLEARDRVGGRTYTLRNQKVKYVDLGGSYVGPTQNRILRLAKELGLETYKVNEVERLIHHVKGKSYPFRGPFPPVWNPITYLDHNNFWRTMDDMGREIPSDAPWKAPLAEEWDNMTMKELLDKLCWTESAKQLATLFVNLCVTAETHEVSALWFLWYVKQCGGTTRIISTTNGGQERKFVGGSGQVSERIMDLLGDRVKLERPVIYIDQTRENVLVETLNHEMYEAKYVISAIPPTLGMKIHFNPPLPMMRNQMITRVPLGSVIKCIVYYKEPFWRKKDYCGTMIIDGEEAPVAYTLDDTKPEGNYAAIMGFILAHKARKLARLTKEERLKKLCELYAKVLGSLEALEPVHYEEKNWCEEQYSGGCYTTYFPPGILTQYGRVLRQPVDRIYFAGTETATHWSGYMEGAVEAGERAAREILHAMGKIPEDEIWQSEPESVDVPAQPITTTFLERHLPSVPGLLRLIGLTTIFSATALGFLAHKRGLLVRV
Description: (§3) Inhibitory patterns and Ki values were determined using Lineweaver–Burk (LB) plots and secondary plots of LB slopes.

Recombinant human MAO-A = molecular target: T4, Recombinant human MAO-A (Homo sapiens, UniProt P21397); test: biochemical
T4 construct: purchased Sigma-Aldrich
T4 sequence (P21397 1-527): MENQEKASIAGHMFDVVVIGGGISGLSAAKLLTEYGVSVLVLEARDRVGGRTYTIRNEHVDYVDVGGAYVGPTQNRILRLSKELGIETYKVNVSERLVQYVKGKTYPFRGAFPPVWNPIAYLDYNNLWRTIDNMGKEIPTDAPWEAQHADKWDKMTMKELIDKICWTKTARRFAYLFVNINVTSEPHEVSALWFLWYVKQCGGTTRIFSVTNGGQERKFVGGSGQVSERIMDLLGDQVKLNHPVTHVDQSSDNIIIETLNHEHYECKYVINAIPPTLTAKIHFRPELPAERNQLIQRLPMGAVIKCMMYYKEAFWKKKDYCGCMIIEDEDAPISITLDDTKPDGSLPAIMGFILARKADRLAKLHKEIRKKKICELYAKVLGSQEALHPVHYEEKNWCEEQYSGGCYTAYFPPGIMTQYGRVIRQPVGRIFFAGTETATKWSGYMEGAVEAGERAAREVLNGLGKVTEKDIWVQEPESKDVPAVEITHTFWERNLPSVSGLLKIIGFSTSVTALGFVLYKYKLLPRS
Description: (§4) AChE and BChE inhibitory activities were measured after preincubating enzymes with inhibitors for 15 min before adding substrates (ATCI and BTCI, respectively) and DTNB. AChE activities were assayed as previously described, with slight modification[21],[22]. […] MAO-A and MAO-B activities were determined using a continuous spectrophotometric method, as described previously[23],[24]. […] Reaction rates are expressed as changes in absorbance per min.
as §3

MAO-B [4] = molecular target: T3, MAO-B; test: biochemical
Description: as §4, §3

AChE [5] = molecular target: T2, AChE; test: Kinetics of AChE inhibition (Lineweaver-Burk and secondary plots); assay type: biochemical
Description: as §3
Substrate concentrations ranged from 0.05 to 1.0 mM. […] Initial reaction rates are expressed as increases in absorbance per min.

MAO-B [6] = molecular target: T3, MAO-B; test: Reversibility of MAO-B inhibition by dialysis; assay type: biochemical
Description: as §1, §2

MAO-B [7] = settings: rat brain mitochondrial fractions; cited from earlier work
[8] = system: Madin-Darby canine kidney (MDCK) cells; test: Cytotoxicity test, CCK-8 assay; settings: 50 µM, 24 h, CCK-8
Description: (§5) Madin-Darby canine kidney (MDCK) cells and human acute promyelocytic leukemia (HL-60) cells were obtained from the Korean Cell Line Bank (Seoul, Korea). […] Cultures were maintained at 37 °C under 5% CO2, and media were changed every two days.
(§6) Cell viabilities were determined using the CCK-8 assay. Briefly, MDCK cells or HL-60 cells were resuspended at 1 × 10^5 or 3 × 10^5 cells/mL and suspensions (100 µL) were added to wells of a 96-well plate and incubated in 5% CO2 atmosphere at 37 °C for 24 h. After incubation, 100 µL of each medium was treated with compounds at 1, 3, 10, 30, or 50 µM and incubated in 5% CO2 at 37 °C for 24 h. CCK-8 (10 µL/well) was then added to 100 µL aliquots from each cell and incubated 2–4 h. Absorbances were measured at 450 nm using a microplate reader (Versamax, Molecular Devices, San Jose, CA, USA).
(§7) Both cell lines were treated with each compound (at 1, 3, 10, 30, or 50 µM) for 24 h. Culture supernatants were then removed and CCK-8 was added. […] Data are expressed as the means ± SDs of triplicate experiments.

[9] = system: human acute promyelocytic leukemia (HL-60) cells; test: Cytotoxicity test, CCK-8 assay; settings: 50 µM, 24 h, CCK-8
Description: as §5, §6, §7

BChE (equine serum) = molecular target: T5, BChE (equine serum) (Equus caballus, UniProt P81908); test: biochemical
T5 construct: BChE (equine serum); purchased Sigma-Aldrich; host or cells: equine serum
T5 sequence (P81908 whole entry): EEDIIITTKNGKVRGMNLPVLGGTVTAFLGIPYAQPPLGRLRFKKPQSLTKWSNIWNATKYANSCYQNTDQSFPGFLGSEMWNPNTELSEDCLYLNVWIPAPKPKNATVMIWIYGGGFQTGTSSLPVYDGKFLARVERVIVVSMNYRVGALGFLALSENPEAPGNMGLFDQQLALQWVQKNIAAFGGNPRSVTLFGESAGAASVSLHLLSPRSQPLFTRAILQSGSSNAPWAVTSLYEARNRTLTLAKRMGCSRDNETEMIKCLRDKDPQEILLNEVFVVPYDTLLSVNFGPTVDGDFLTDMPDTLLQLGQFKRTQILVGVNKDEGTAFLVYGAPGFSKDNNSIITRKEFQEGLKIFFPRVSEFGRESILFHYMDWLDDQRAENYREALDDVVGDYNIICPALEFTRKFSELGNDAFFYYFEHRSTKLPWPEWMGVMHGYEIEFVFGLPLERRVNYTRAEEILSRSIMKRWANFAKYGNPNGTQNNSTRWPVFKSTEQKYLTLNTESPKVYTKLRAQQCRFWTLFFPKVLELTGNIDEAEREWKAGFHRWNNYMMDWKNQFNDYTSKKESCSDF
Description: as §4, with “min. […]” for “min.”

[10] = molecular target: AChE (Type VI-S from Electrophorus electricus) (Electrophorus electricus, UniProt O42275); test: biochemical
Sequence of AChE (Type VI-S from Electrophorus electricus) (O42275 24-633): as the sequence (O42275 24-633) above
Description: as §4, with “min. […]” for “min.”

T1 sequence (P56817 46-457): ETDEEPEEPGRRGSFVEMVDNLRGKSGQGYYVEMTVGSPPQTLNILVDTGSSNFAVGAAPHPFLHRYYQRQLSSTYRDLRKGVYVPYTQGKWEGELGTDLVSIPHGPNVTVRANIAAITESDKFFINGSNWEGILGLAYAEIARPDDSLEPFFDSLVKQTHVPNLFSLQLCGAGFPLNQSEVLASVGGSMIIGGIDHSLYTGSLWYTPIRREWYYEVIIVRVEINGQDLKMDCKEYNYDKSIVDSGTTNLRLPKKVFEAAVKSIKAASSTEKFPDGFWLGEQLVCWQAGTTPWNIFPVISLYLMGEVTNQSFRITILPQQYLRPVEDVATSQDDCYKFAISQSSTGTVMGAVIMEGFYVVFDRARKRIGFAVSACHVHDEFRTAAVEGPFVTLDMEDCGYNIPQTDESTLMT

Question: With `O=c1oc2c(O)c(O)cc3c(=O)oc4c(O)c(O)cc1c4c23` [Compound 5, ellagic acid] as the compound, how does the remaining activity at 10 µM (BACE-1) read?
Answer: 59.1 ± 0.3%

Question: And the “Reversibility of AChE inhibition” value (AChE [1])?
Answer: reversibly; also recorded: reversible inhibitors

Question: And the IC50 (AChE [2])?
Answer: 133 µM

Question: And the Ki (MAO-B [3])?
Answer: 7.51 ± 1.86 µM

Question: What about the “Mode of MAO-B inhibition” value (MAO-B [3]; LB plots) of the same compound?
Answer: competitive

Question: And the IC50 (Recombinant human MAO-A)?
Answer: > 40 µM

Question: What about the remaining activity at 10 µM (Recombinant human MAO-A; read-out: Residual activity at 10 µM (%) MAO-A) of the same compound?
Answer: 99.5 ± 0.7%

Question: What about the IC50 (MAO-B [4]) of the same compound?
Answer: 9.21 ± 0.16 µM

Question: And the inhibition at 10 µM (MAO-B [4]; 10 µM)?
Answer: > 50%

Question: And the remaining activity at 10 µM (MAO-B [4]; read-out: Residual activity at 10 µM (%) MAO-B)?
Answer: 45.4 ± 4.1%

Question: And the Ki (AChE [5])?
Answer: 9.43 ± 2.51 µM

Question: And the “Mode of AChE inhibition” value (AChE [5]; LB plots)?
Answer: competitively; also recorded: competitive but partly mixed; also recorded: competitive but partially mixed

Question: And the “Reversibility of MAO-B inhibition” value (MAO-B [6])?
Answer: reversible inhibitors

Question: What about the IC50 (MAO-B [7]) of the same compound?
Answer: 0.412 µM

Question: And the MDCK cell viability [8]?
Answer: slightly or non-toxic; also recorded: negligible effects; also recorded: non-toxic or slightly toxic

Question: And the HL-60 cell viability [9]?
Answer: negligible effects; also recorded: non-toxic or slightly toxic

Question: What about the IC50 (BChE (equine serum)) of the same compound?
Answer: > 40 µM

Question: And the remaining activity at 10 µM (BChE (equine serum); read-out: Residual activity at 10 µM (%) BChE)?
Answer: 96.9 ± 5.8%

Question: And the IC50 [10]?
Answer: 41.7 ± 2.4 µM

Question: What about the SI ([10]; IC50 for BChE divided by IC50 for AChE) of the same compound?
Answer: > 1.0

Question: What about the remaining activity at 10 µM ([10]; read-out: Residual activity at 10 µM (%) AChE) of the same compound?
Answer: 81.5 ± 4.2%
